{"source": "paper PMC6423038", "about": "“Deferiprone: Pan-selective Histone Lysine Demethylase Inhibition Activity and Structure Activity Relationship Study” (Scientific Reports, 2019)", "key": {"[1]": {"system": "HP1-mediated heterochromatin gene repression in CiA:Oct4 embryonic stem cells", "experiment": "HP1-recruitment assay dose curve (CiA:Oct4, with CIP-rapamycin), flow cytometry", "format": "cell-based, mouse", "conditions": "48 h with CIP-rapamycin recruitment of HP1; up to 10 µM", "source_text": "To elucidate the effect of DFP-based KDM inhibitors on chromatin dynamics, we profiled them in an intracellular assay which measures heterochromatin formation speed. The chromatin in vivo assay (CiA) leverages chemical induced proximity (CIP) to recruit heterochromatin protein 1 (HP1) to a modified Oct4 locus. This reporter system is composed of tandem arrays of Gal4 and zinc finger DNA binding domains in the promoter of one allele of Oct4, where the gene was replaced by a nuclear eGFP reporter. Protein fusions of Gal4-FKBP and FRB-HP1 allow for direct chemical recruitment of HP1 to the CiA:Oct4 reporter locus upon addition of the chemical inducer of proximity (CIP)-rapamycin. After CIP-rapamycin addition, HP1 is recruited to the reporter locus and brings histone methyltransferase enzymes to the chromatin reporter resulting in the repressive H3K9me3 mark being deposited (Fig. 10A). H3K9me3 deposition is the signature mark of heterochromatin and is coupled with gene silencing and loss of GFP expression (Fig. 10B)[33]. Others have shown that H3K4me3 marked nucleosomes impede H3K9 methyltransferase activity. Thus, we postulate that the active H3K4me3 mark must be removed by KDM enzymes as part of the transformation from euchromatin to heterochromatin. Inhibition of KDMs, specifically those targeting H3K4me3, would result in a decrease in H3K9me3 accumulation, which would be measured in our assay as an increase in GFP positive cells.\nTo determine the effect of DFP-based KDM inhibitors on HP1-mediated gene repression, we treated CiA:Oct4 embryonic stem (ES) cells with doses of representative compounds ranging from 10 µM–250 nM for 48 h with CIP-rapamycin recruitment of HP1 (Fig. 10C). […] The percentage of GFP(+) cells was determined by flow cytometry as indicated in representative histograms (Supplemental Fig. S8).\nDay 0, CiA:Oct4 N118/163 cells were grown in ES media and seeded at a density of 10,000 cells per well in 100 μL media (100,000 cells mL^−1) on gelatin coated 96 well plates. Day 1, culture media was aspirated and replaced with 100 µL ES media containing +/− 6 nM rapamycin. 10 µM, 5 µM, 2.5 µM, 1 µM, 500 nM, and 250 nM concentrations of compound or DMSO were added using a TTP Labtech Mosquito HTS liquid handler. Days 2, fresh ES media +/− rapamycin and compound were added as in Day 1. Day 3, cells were washed with PBS and trypsinized using 0.25% trypsin-EDTA. Trypsin was quenched with serum. Cells were resuspended by pipetting in preparation for flow cytometry analysis.\nFlow cytometry data was acquired using the Intellicyt iQue Screener and analyzed with FlowJo software.\nThe CiA:Oct4 recruitment system in mouse embryonic stem cells contains Gal4 and Zinc finger DNA binding arrays and a downstream nuclear eGFP gene in place of a single Oct4 allele as previously described.^30 The CiA:Oct4 N118/N163 cell line containing viral integrations of N118 and N163 plasmids (N118- nLV EF-1α-Gal-FKBPx1-HA-PGK-Blast, N163- nLV EF-1α-HP1α (CS)-Frbx2(Frb+FrbWobb)-V5-PGK-Puro) was used for inhibition of HP1-mediated heterochromatin studies. All plasmids are freely available on addgene.\nHP1-Recruitment Assay Dose Curve. Day 0, CiA:Oct4 N118/163 cells were grown in ES media and seeded at a density of 10,000 cells per well in 100 µL media (100,000 cells mL^-1) on gelatin coated 96 well plates. Day 1, culture media was aspirated and replaced with 100 µL ES media containing +/- 6 nM rapamycin. 10 µM, 5 µM, 2.5 µM, 1 µM, 500 nM, and 250 nM concentrations of compound or DMSO were added using a TTP Labtech Mosquito HTS liquid handler. Days 2, fresh ES media +/- rapamycin and compound were added as in Day 1. Day 3, cells were washed with PBS and trypsinized using 0.25% trypsin-EDTA. Trypsin was quenched with serum. Cells were resuspended by pipetting in preparation for flow cytometry analysis.\nFlow Cytometry and Analysis."}, "MDA-MB-231": {"system": "MDA-MB-231", "experiment": "Cell viability assay (MTS), antiproliferative activity", "format": "cell-based", "conditions": "Homo sapiens, 72 h, Table 4", "description": "(§1) To preliminarily profile the bioactivity of these compounds, we adopted a streamlined approach which involved screening against KDM6A at two concentrations and evaluating antiproliferative activity against three representative cell lines – MCF-7 (ER(+) BCa), MDA-MB-231 (TNBC BCa) and Vero (a non-transformed cell line as control).\n(§2) The In vitro proliferation assay was performed as reported previously[15],[16]. Detailed description of the protocol used is included in the Supplementary Information.\n(§3) Cell Viability Assay. All cell lines were purchased form ATCC (Manassas, VA), and they were routinely cultured in different media recommended by the supplier. MCF-7 cells were cultured in non-phenol red DMEM (Corning, Manassas, VA) fortified with 10% charcoal treated fetal bovine serum (FBS; Atlanta Biologicals, GA) and 0.2 mM glutamine (Corning, Manassas, VA), whereas MDA-MB-231, DU-145, and Vero were cultured in DMEM with 10% FBS. […] After 24 h incubation in 37 °C under 5% CO2, cells were treated with serially diluted ligands with final DMSO concentration of 1% and incubated for additional 72 h. MTS (CellTiter 96 Aqueous One Solution Cell Proliferation Assays, Promega, Madison, WI) was added to each well 2.5 h prior to recording the absorbance at 490 nm."}, "VERO": {"system": "VERO", "experiment": "Cell viability assay (MTS), antiproliferative activity", "format": "cell-based", "conditions": "Chlorocebus sabaeus, 72 h, Table 4", "description": "as §1, §2, §3"}, "MCF-7": {"system": "MCF-7", "experiment": "Cell viability assay (MTS), antiproliferative activity", "format": "cell-based", "conditions": "Homo sapiens, MCF7, 72 h, Table 4", "description": "as §1, §2, §3"}}}
{"smiles": "Cc1c(O)c(=O)ccn1C", "note": "[DFP, Deferiprone]", "values": [{"measurement": "inhibition of heterochromatin formation", "setting": "[1]", "value": "did not inhibit heterochromatin formation"}, {"measurement": "IC50", "setting": "MDA-MB-231", "value": 112, "unit": "µM"}, {"measurement": "IC50", "setting": "VERO", "value": 85.9, "unit": "µM"}, {"measurement": "IC50", "setting": "MCF-7", "value": 134, "unit": "µM"}]}
